Results on seven molecules are retold here after patent US7186521B2, “Determining the effect of a substance on sequestration, uptake, and accumulation of amyloid in brain cells” (The Regents of the University of California, priority 2000, dated 2007).

For test [1], the system named is cultured hippocampal slices. The test can be described thus: Aβ1–42 uptake/internalization in cultured hippocampal slices (Aβ1–42 immunocytochemistry, NIH Image quantification). The class given is cell-based, Sprague-Dawley rat. As to conditions: for number of Aβ-ir particles within the sample field / size (average area) of individual Aβ-ir particles / total area encompassed by Aβ-ir elements: CA1b stratum pyramidale; for number of Aβ-ir particles within the sample field: Aβ1–42 plus antagonist vs Aβ alone (FIG. 4G), significant for GRGDSP only; for size (average area) of individual Aβ-ir particles / total area encompassed by Aβ-ir elements: Aβ1–42 plus antagonist; for size (average area) of individual Aβ-ir particles: mean±sem relative to Aβ alone (FIG. 4E); for total area encompassed by Aβ-ir elements: mean±sem relative to Aβ alone (FIG. 4F); for effect on sequestration/uptake/internalization of Aβ1–42: co-incubated with Aβ1–42, 6 days, GRGDSP and GRADSP 2 mM, echistatin 2 μM; for slices with intraneuronal Aβ1–42 immunostaining: Aβ1–42 plus antagonist (GRGDSP 2 mM; echistatin 2 μM). The method, then: (§1) Organotypic hippocampal cultures were prepared using the technique of Stoppini et al. (1991). Briefly, hippocampi were harvested from brains of 9–12 days old Sprague-Dawley rat pups under sterile conditions. Sections were cut (400 μm thick) perpendicular to the long axis of hippocampus using a Mclllwain tissue chopper and were collected into a cutting medium consisting of MEM with Earle's salts (Gibco, Rockville Md.), 25 mM HEPES, 10 mM Tris base, 10 mM glucose, and 3 mM MgCl2 (pH 7.2). Slices were positioned onto 30 mm cell culture inserts (Millicell-CM, Millipore, Bedford, […].) that were placed in 6 well culture trays with 1 ml of growth medium per well [growth medium: MEM with Hank's salts (Gibco), 20% horse serum, 3 mM glutamine, 25 mM HEPES, 5 mM NaHCO3, 25 mM glucose, 0.5 mM ascorbate, 2 mM CaCl2, 2.5 mM MgCl2, 0.5 mg/1 insulin, and penicillin, pH 7.2]. The cultures were incubated at 35° C. with a 5% CO2-enriched atmosphere and the media was changed every other day until use 10–12 days later.
(§2) Cultured hippocampal slices were exposed to media containing the human Aβ1–42 sequence in the presence or absence of the integrin antagonist peptide, Gly-Arg-Gly-Asp-Ser-Pro, or GRGDSP (SEQ. ID. No.3) (2 mM dissolved in media) (Ruoslahti, E., Ann Rev Cell Dev Biol 12:697–715 (1996)). In some cases, slices were co-treated with the specific NMDA receptor antagonist 2-amino-5-phosphonovalerate (AP5) (Sigma) at 50 μM. Control slices in neighboring wells received media-vehicle only. Aβ1–42 peptide solution was freshly prepared before the start of the experiment using 0.1N NaOH, pH adjusted with 0.1N HCl to 7.4, and then diluted with serum-free culture medium. Aβ was applied at 30 μM for 8–10 hr after which it was diluted to 15 μM by the addition of fresh culture media containing heated treated horse serum. Treatment was repeated every other day for a total 6 days. Disintegrins are small (4–10 kDa) RGD-containing, cysteine-rich peptides from snake venom that bind integrins with high affinity (Kd˜1 nM–0.1 μM) and are potent antagonists of integrin functions (Huang, T. F., Cell Mol Life Sci 54:527–540 (1998)for review). In some experiments the disintegrin echistatin (2 μM dissolved in media) was applied instead of GRGDSP (SEQ. ID. No.3).
(§3) The following treatment, slices were thoroughly washed with 0.1M sodium phosphate buffered saline (PBS), fixed for 12–16 hr in cold 0.1M phosphate buffer (PB; pH 7.2) containing 4% paraformaldehyde, cryoprotected in 20% sucrose/PB for 1–2 hr and then carefully removed from the insert membranes. Serial sections were cut at 25 μm thick, parallel to the broad face of the explant, using a freezing microtome. Immunocytochemistry was performed using the standard avidin biotin horseradish peroxidase complex (ABC) method using reagents and instructions of the VECTASTAIN® Elite ABC kit from Vector Laboratories (Burlingame, Calif.) with diaminobenzidine tetrahydrochloride (0.05% in 50 mM Tris-HCl buffer, pH 7.4) as chromagen and PBS for rinses and as diluent for antibody incubations. Briefly, free-floating sections were preincubated with 3% normal goat serum (for anti-Aβ1–42 and anti-cathepsin D antibodies) or 10% normal horse serum (for ED-1) in PBS for 1 hr at room temperature. […] Sections were washed in PBS, incubated in biotinylated anti-rabbit or anti-mouse IgG (both at 1:200) for 2–3 hr, washed in PBS, incubated in the avidin-biotin complex solution for 45 min and then processed through the diaminobenzidine reaction. After final rinses in PBS, sections were mounted on SuperFrost Plus slides (Fisher Scientific, Pittsburgh), air-dried, dehydrated in a series of graded ethanols, and coverslipped from Clearing Solvent (Stephens Scientific, Kalamazoo, Mich.) with Permount (Fisher).
Images centered on CA1b stratum pyramidale were obtained at 40× objective magnification using a Sony DKC-5000 digital camera attached to a Zeiss Universal microscope. […]

The test system of a further test is cathepsin D. The test can be described thus: Cathepsin D immunoreactivity in cultured hippocampal slices. It counts as cell-based, Sprague-Dawley rat. The method, then: as §1, §2
The following treatment, slices were thoroughly washed with 0.1M sodium phosphate buffered saline (PBS), fixed for 12–16 hr in cold 0.1M phosphate buffer (PB; pH 7.2) containing 4% paraformaldehyde, cryoprotected in 20% sucrose/PB for 1–2 hr and then carefully removed from the insert membranes. Serial sections were cut at 25 μm thick, parallel to the broad face of the explant, using a freezing microtome. […]

The next test deals with reactive microglia. The test can be described thus: Microglial activation (ED-1 immunoreactivity) in cultured hippocampal slices. It counts as cell-based, Sprague-Dawley rat. Conditions: for effect on ED-1-ir microglia: 50 μM AP5 with Aβ1–42 and 2 mM GRGDSP, 6 days; for number of ED-1 positive cells: treatment by itself. The method, then:
as §1, §2
as §3, with “After final rinses in PBS, sections were mounted on SuperFrost Plus slides (Fisher Scientific, Pittsburgh), air-dried, dehydrated in a series of graded ethanols, and coverslipped from Clearing Solvent (Stephens Scientific, Kalamazoo, Mich.) with Permount (Fisher).” left out

Test [2] concerns integrin binding to fibronectin and vitronectin. As to conditions: literature; used as inactive control peptide; cited from earlier work.
The next test relates to CHO cells. As to conditions: CHO cells in culture; Matter et al. 1998; cited from earlier work.
The test system of test [3] is LTP stabilization in field CA1 of hippocampus. Conditions: injection of 5 μM echistatin; Chun et al., 2001; cited from earlier work.
The target of the next test is RGD-binding integrins. The test is described as follows: cell-based or functional assay.
Setting [4] is: 50 μM AP5 with Aβ1–42 and 2 mM GRGDSP, 6 days.
Setting [5] is: treatment alone, 6 days, count of slices with Aβ-ir out of number of slices tested (Aβ 45, RGD 14).
The mark [6] stands for this setting: treatment alone, 6 days (GRGDSP 2 mM).
[7] abbreviates: Aβ + antagonist co-incubation, 6 days, count out of slices tested (61, 16, 21, 16), RGD and RAD 2 mM, Ech 2 μM.

Entries after “also recorded” stand apart in the source; their conditions may differ. Ends that are not written are not given here.

Turning to `NC(CCCP(=O)(O)O)C(=O)O` (stereo not shown) [AP5, 2-amino-5-phosphonovalerate], the “effect on GRGDSP-enhanced Aβ1–42 uptake” value in test [1] (setting [4]) is on record as “completely blocked Aβ1–42 uptake; also recorded: completely eliminated Aβ uptake”. The “effect on cathepsin D-ir” value in the test with cathepsin D (setting [4]) was “almost totally suppressed; also recorded: suppressed cathepsin D-ir”. The “effect on ED-1-ir microglia” value in the test on reactive microglia is reported as “ED-1-ir (C′) to vehicle control levels”; with reactive microglia (listed as AP-5), “greatly reduced”.

In the case of “Aβ1–42: human amyloid beta peptide, 42-residue form, applied exogenously to slices”, in test [1] (Aβ1–42 alone, 6 days), the “slices with intraneuronal Aβ1–42 immunoreactivity (Aβ-ir)” value stood at 42%. Moreover, the Aβ positive cases in test [1] (setting [5]) was 19. The “cathepsin D-ir” value in the test with cathepsin D (setting [6]) is listed as “did not cause substantial increases in cathepsin D-ir”. Besides, in the test on reactive microglia, the “number of ED-1 positive cells” value is recorded as “did not cause a noticeable increase in the number of ED-1 positive cells”.

Take GRADSP: the “antagonism of integrin binding to fibronectin and vitronectin” value in test [2] is given as “very weak antagonist”. Further, the Aβ positive cases in test [1] (setting [7]) amounted to 9. Also, in test [1], the “number of Aβ-ir particles within the sample field” value was “did not cause significant changes”, the “size (average area) of individual Aβ-ir particles” value (“size (average area)” for short) is “did not cause significant changes”, the “total area encompassed by Aβ-ir elements” value was “did not cause significant changes” and the “effect on sequestration/uptake/internalization of Aβ1–42” value is recorded as “did not measurably affect sequestration of Aβ1–42; also recorded: modest”.

In the case of Gly-Arg-Gly-Asp-Ser-Pro [GRGDSP], the “effect on binding and uptake of Aβ” value in the test with CHO cells was “block the binding and uptake of Aβ in CHO cells”. Also, the “slices with intraneuronal Aβ1–42 immunostaining” value in test [1] (6 days) was “More than 88%”. In addition, in test [1], the “number of Aβ-ir particles within the sample field” value is on record as “increased the numbers of Aβ-ir particles”, the “size (average area)” value is “+101±13%”, the “total area encompassed by Aβ-ir elements” value came to 324±16% and the “effect on sequestration/uptake/internalization of Aβ1–42” value is “markedly increase sequestration of the exogenous peptide; also recorded: markedly enhances uptake in cultured hippocampal slices; also recorded: enhanced; also recorded: increased the uptake of Aβ1–42 peptide”. Moreover, the “induction of Aβ-ir” value in test [1] (peptide by itself, without Aβ1–42) is given as “did not induce Aβ-ir”. The same molecule yielded an Aβ positive cases in test [1] (setting [5]) of 0. Further, the “cathepsin D-ir” value in the test with cathepsin D (Aβ1–42 plus 2 mM GRGDSP, 6 days) was “generated intense intraneuronal cathepsin D-ir; also recorded: elevated”. Also, the “cathepsin D-ir” value with cathepsin D (setting [6]) is “did not increase cathepsin D-ir”. The “microglial response (ED-1-ir)” value with reactive microglia (Aβ1–42 and GRGDSP applied together) is on record as “produced a pronounced microglial response”. Also, the “number of ED-1 positive cells” value with reactive microglia is reported as “did not cause a noticeable increase in the number of ED-1 positive cells”.

Consider “echistatin (QCESGPCCRNCKFLKEGTICKRARGDDMDDYCNGKTCDCPRNPHKGPAT)”, for which the “slices with intraneuronal Aβ1–42 immunostaining” value in test [1] (6 days) worked out at 86%. Moreover, in test [1] (setting [7]), the Aβ positive cases is recorded as 18. In test [1], the “number of Aβ-ir particles within the sample field” value was “increased the numbers of Aβ-ir particles”, the “size (average area)” value is given as “+95±13%”, the “total area encompassed by Aβ-ir elements” value is 233±24% and the “effect on sequestration/uptake/internalization of Aβ1–42” value is “significantly enhanced Aβ internalization; also recorded: increased the uptake of Aβ1–42 peptide”. For the same molecule, in test [3], the “effect on LTP stabilization” value is on record as “selectively disrupts LTP stabilization”.

B1: integrin antagonist peptide Gly-Arg-Gly-Asp-Ser-Pro (GRGDSP) (peptide)
peptide: GRGDSP
With B1, in the test with RGD-binding integrins, the Aβ positive cases (slices with intraneuronal Aβ1-42 immunoreactivity), Aβ + RGD, of 61 slices tested (slices (of 61 tested)) was found to be 54; the increase in size (mean area) of Aβ-ir elements in CA1 stratum pyramidale, relative to Aβ alone worked out at 101%; the total area encompassed by Aβ-immunoreactive elements, relative to Aβ alone was determined as 324%.

B2: inactive control peptide Gly-Arg-Ala-Asp-Ser-Pro (GRADSP) (peptide)
peptide: GRADSP
Turning to B2, the Aβ positive cases (slices with intraneuronal Aβ1-42 immunoreactivity), Aβ + RAD, of 16 slices tested (slices (of 16 tested)) with RGD-binding integrins turned out to be 9.
